# Data taken from patent publication US10611730B2, “Benzimidazolone and benzothiazolone compounds and their use as AMPA receptor modulators” (Janssen Pharmaceutica NV, priority 2015, dated 2020).
# Molecular target: TARP γ8 dependent AMPA receptor (GluA1o-g8 fusion channel) (Homo sapiens (Human), UniProt P42261+Q8WXS5)
# Assay: Calcium flux assay (FLIPR), HEK293 cells expressing GRIA1o-CACNG8 fusion
# Assay type: cell-based
# Conditions: inhibition of calcium flux after 15 μM glutamate, read-out: GluR1-γ8 pIC50 (converted)
# Outline: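 Stable HEK293 clone expressing GluA1o-γ8 fusion (1:1 stoichiometry), loaded with Calcium-5/6 dye plus test compound; glutamate-evoked fluorescence normalized to control wells. Concentration-response fitted to four-parameter logistic, midpoint taken as inhibitory potency.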
# Chain of TARP γ8 dependent AMPA receptor (GluA1o-g8 fusion channel) (P42261 other isoform, or with tags, fused parts or gaps): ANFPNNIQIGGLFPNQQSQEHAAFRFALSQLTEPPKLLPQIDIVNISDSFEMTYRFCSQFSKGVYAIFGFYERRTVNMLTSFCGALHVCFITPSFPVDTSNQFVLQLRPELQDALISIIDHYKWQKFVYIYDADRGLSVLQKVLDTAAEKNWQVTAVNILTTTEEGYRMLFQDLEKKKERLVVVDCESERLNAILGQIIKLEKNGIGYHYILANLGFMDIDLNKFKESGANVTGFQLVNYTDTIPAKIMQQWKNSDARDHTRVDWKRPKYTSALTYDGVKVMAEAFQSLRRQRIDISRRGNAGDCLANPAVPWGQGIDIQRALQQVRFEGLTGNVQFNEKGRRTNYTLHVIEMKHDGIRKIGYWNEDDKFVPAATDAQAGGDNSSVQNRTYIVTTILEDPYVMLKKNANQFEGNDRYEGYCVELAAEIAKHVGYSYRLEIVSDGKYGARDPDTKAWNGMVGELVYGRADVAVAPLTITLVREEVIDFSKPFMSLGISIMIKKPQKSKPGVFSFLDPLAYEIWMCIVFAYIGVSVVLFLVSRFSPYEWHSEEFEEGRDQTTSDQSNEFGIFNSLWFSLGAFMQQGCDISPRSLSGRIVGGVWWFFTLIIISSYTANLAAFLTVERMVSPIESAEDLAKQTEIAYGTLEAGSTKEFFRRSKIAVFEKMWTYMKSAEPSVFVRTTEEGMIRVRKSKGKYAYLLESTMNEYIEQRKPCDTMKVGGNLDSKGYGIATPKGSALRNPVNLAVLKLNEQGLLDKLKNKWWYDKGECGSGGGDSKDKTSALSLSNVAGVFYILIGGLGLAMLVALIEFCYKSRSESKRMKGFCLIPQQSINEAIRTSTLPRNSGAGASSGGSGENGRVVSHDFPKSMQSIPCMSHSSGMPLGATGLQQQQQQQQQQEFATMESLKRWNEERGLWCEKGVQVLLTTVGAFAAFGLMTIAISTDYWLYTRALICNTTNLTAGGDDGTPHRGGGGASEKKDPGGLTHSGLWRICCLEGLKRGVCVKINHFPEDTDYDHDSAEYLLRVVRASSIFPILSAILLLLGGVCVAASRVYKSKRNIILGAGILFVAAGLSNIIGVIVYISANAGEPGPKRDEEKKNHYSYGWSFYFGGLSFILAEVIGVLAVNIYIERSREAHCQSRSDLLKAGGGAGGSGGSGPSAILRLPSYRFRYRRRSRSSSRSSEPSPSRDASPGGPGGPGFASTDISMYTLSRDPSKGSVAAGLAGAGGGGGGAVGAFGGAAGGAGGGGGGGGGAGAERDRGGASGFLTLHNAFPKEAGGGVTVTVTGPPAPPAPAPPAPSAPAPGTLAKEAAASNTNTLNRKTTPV
row,SMILES,IC50
1,"CC(C)Oc1cccc(OC(C)C)c1-c1ccc2[nH]c(=O)[nH]c2c1 [Example 107, 5-(2,6-Diisopropoxyphenyl)-1,3-dihydrobenzimidazol-2-one]",0.0631 µM
2,"CC(C)Oc1cccc(C(F)(F)F)c1-c1ccc2[nH]c(=O)[nH]c2c1 [Example 108, 5-[2-Isopropoxy-6-(trifluoromethyl)phenyl]-1,3-dihydrobenzimidazol-2-one]",0.0794 µM
3,"O=c1[nH]c2ccc(-c3cccc(OC4CC4)c3Cl)cc2[nH]1 [Example 109, 5-[2-Chloro-3-(cyclopropoxy)phenyl]-1,3-dihydrobenzimidazol-2-one]",0.0398 µM
4,"CC(C)Oc1cccc(-c2ccc3[nH]c(=O)[nH]c3c2)c1Cl [Example 110, 5-(2-Chloro-3-isopropoxy-phenyl)-1,3-dihydrobenzimidazol-2-one]",0.0316 µM
5,"O=c1[nH]c2ccc(-c3cccc(OCC(F)F)c3Cl)cc2[nH]1 [Example 112, 5-[2-Chloro-3-(2,2-difluoroethoxy)phenyl]-1,3-dihydrobenzimidazol-2-one]",0.126 µM
6,"O=c1[nH]c2ccc(-c3cccc(OC(F)F)c3Cl)cc2[nH]1 [Example 113, 5-[2-Chloro-3-(difluoromethoxy)phenyl]-1,3-dihydrobenzimidazol-2-one]",0.0794 µM
7,"CC(C)(C)OC(=O)N1CC(Oc2cccc(-c3ccc4[nH]c(=O)[nH]c4c3)c2Cl)C1 [Example 114, tert-Butyl 3-[2-chloro-3-(2-oxo-1,3-dihydrobenzimidazol-5-yl)phenoxy]azetidine-1-carboxylate]",0.2 µM
8,"CC(C)Oc1c(Cl)cccc1-c1ccc2[nH]c(=O)[nH]c2c1 [Example 115, 5-(3-Chloro-2-isopropoxy-phenyl)-1,3-dihydrobenzimidazol-2-one]",2 µM
9,"CC(C)(C)Oc1cccc(Cl)c1-c1ccc2[nH]c(=O)[nH]c2c1 [Example 116, 5-(2-tert-Butoxy-6-chloro-phenyl)-1,3-dihydrobenzimidazol-2-one]",0.158 µM
10,"COc1cccc(OC(C)(C)C)c1-c1ccc2[nH]c(=O)[nH]c2c1 [Example 117, 5-(2-tert-Butoxy-6-methoxy-phenyl)-1,3-dihydrobenzimidazol-2-one]",1 µM
11,"N#CCc1ccc(Cl)c(Cl)c1-c1ccc2[nH]c(=O)[nH]c2c1 [Example 122, 2-[3,4-Dichloro-2-(2-oxo-1,3-dihydrobenzimidazol-5-yl)phenyl]acetonitrile]",0.00794 µM
12,"CC(C)(C#N)c1cccc(Cl)c1-c1ccc2[nH]c(=O)[nH]c2c1 [Example 127, 2-[3-Chloro-2-(2-oxo-1,3-dihydrobenzimidazol-5-yl)phenyl]-2-methyl-propanenitrile]",0.0251 µM
13,"N#CC1(c2cccc(Cl)c2-c2ccc3[nH]c(=O)[nH]c3c2)CC1 [Example 128, 1-[3-Chloro-2-(2-oxo-1,3-dihydrobenzimidazol-5-yl)phenyl]cyclopropanecarbonitrile]",0.398 µM
14,"N#CC1(c2cccc(Cl)c2-c2ccc3[nH]c(=O)[nH]c3c2)CCC1 [Example 129, 1-[3-Chloro-2-(2-oxo-1,3-dihydrobenzimidazol-5-yl)phenyl]cyclobutanecarbonitrile]",0.794 µM
15,"N#CCc1cccc(-c2ccc3[nH]c(=O)[nH]c3c2)c1Cl [Example 130, 2-[2-Chloro-3-(2-oxo-1,3-dihydrobenzimidazol-5-yl)phenyl]acetonitrile]",2 µM
16,"N#CCc1ccc(Cl)c(-c2ccc3[nH]c(=O)[nH]c3c2)c1Cl [Example 131, 2-[2,4-Dichloro-3-(2-oxo-1,3-dihydrobenzimidazol-5-yl)phenyl]acetonitrile]",2 µM
17,"N#CCc1cccc(Br)c1-c1ccc2[nH]c(=O)[nH]c2c1 [Example 132, 2-[3-Bromo-2-(2-oxo-1,3-dihydrobenzimidazol-5-yl)phenyl]acetonitrile]",0.0316 µM
18,"N#CCc1cccc(Cl)c1-c1ccc2[nH]c(=O)sc2c1 [Example 133, 2-[3-Chloro-2-(2-oxo-3H-1,3-benzothiazol-6-yl)phenyl]acetonitrile]",0.00316 µM
19,"O=c1[nH]c2ccc(-c3c(Cl)cncc3Cl)cc2s1 [Example 134, 6-(3,5-Dichloro-4-pyridyl)-3H-1,3-benzothiazol-2-one]",0.0631 µM
20,"N#CCc1cccc(-c2ccc(F)cc2)c1-c1ccc2[nH]c(=O)[nH]c2c1 [Example 135, 2-[3-(4-Fluorophenyl)-2-(2-oxo-1,3-dihydrobenzimidazol-5-yl)phenyl]acetonitrile]",0.02 µM
21,"N#CCc1cccc(-c2ccccc2F)c1-c1ccc2[nH]c(=O)[nH]c2c1 [Example 136, 2-[3-(2-Fluorophenyl)-2-(2-oxo-1,3-dihydrobenzimidazol-5-yl)phenyl]acetonitrile]",0.158 µM
22,"COc1ccc(-c2cccc(CC#N)c2-c2ccc3[nH]c(=O)[nH]c3c2)cc1 [Example 137, 2-[3-(4-Methoxyphenyl)-2-(2-oxo-1,3-dihydrobenzimidazol-5-yl)phenyl]acetonitrile]",0.316 µM

row,SMILES,IC50
1,"N#CCc1cccc(C2CC2)c1-c1ccc2[nH]c(=O)[nH]c2c1 [Example 138, 2-[3-Cyclopropyl-2-(2-oxo-1,3-dihydrobenzimidazol-5-yl)phenyl]acetonitrile]",0.1 µM
2,"O=c1[nH]c2ccc(-c3c(Cl)ccc(CN4CCOCC4)c3Cl)cc2[nH]1 [Example 139, 5-[2,6-Dichloro-3-(morpholinomethyl)phenyl]-1,3-dihydrobenzimidazol-2-one]",0.251 µM
3,"O=c1[nH]c2ccc(-c3c(Cl)ccc(CN4CCCCC4)c3Cl)cc2[nH]1 [Example 140, 5-[2,6-Dichloro-3-(1-piperidylmethyl)phenyl]-1,3-dihydrobenzimidazol-2-one]",0.398 µM
4,"O=c1[nH]c2ccc(-c3cccc(CN4CCOCC4)c3Cl)cc2[nH]1 [Example 141, 5-[2-Chloro-3-(morpholinomethyl)phenyl]-1,3-dihydrobenzimidazol-2-one]",1 µM
5,"O=c1[nH]c2ccc(-c3cccc(CN4CCCCC4)c3Cl)cc2[nH]1 [Example 142, 5-[2-Chloro-3-(1-piperidylmethyl)phenyl]-1,3-dihydrobenzimidazol-2-one]",0.631 µM
6,"CC1(C)CN(Cc2cccc(-c3ccc4[nH]c(=O)[nH]c4c3)c2Cl)CCO1 [Example 143, 5-[2-Chloro-3-[(2,2-dimethylmorpholin-4-yl)methyl]phenyl]-1,3-dihydrobenzimidazol-2-one]",0.1 µM
7,"O=c1[nH]c2ccc(-c3c(Cl)cccc3CN3CCOCC3)cc2[nH]1 [Example 145, 5-[2-Chloro-6-(morpholinomethyl)phenyl]-1,3-dihydrobenzimidazol-2-one]",1 µM
8,"CN1CCN(Cc2cccc(Cl)c2-c2ccc3[nH]c(=O)[nH]c3c2)CC1 [Example 146, 5-[2-Chloro-6-[(4-methylpiperazin-1-yl)methyl]phenyl]-1,3-dihydrobenzimidazol-2-one]",7.94 µM
9,"Cc1c(CN2CCCCC2)cccc1-c1ccc2[nH]c(=O)[nH]c2c1 [Example 147, 5-[2-Methyl-3-(1-piperidylmethyl)phenyl]-1,3-dihydrobenzimidazol-2-one]",1.58 µM
10,"Cc1c(CN2CCOCC2)cccc1-c1ccc2[nH]c(=O)[nH]c2c1 [Example 148, 5-[2-Methyl-3-(morpholinomethyl)phenyl]-1,3-dihydrobenzimidazol-2-one]",2 µM
11,"Cc1c(CN2CCOC(C)(C)C2)cccc1-c1ccc2[nH]c(=O)[nH]c2c1 [Example 149, 5-[3-[(2,2-Dimethylmorpholin-4-yl)methyl]-2-methyl-phenyl]-1,3-dihydrobenzimidazol-2-one]",0.02 µM
12,"Cc1c(CN2CCSCC2)cccc1-c1ccc2[nH]c(=O)[nH]c2c1 [Example 154, 5-[2-Methyl-3-(thiomorpholinomethyl)phenyl]-1,3-dihydrobenzimidazol-2-one]",0.2 µM
13,"Cc1c(CN2CCN(C(=O)OC(C)(C)C)CC2)cccc1-c1ccc2[nH]c(=O)[nH]c2c1 [Example 155, tert-Butyl 4-[[2-methyl-3-(2-oxo-1,3-dihydrobenzimidazol-5-yl)phenyl]methyl]piperazine-1-carboxylate]",0.316 µM
14,"Cc1c(CN2CCCC2)cccc1-c1ccc2[nH]c(=O)[nH]c2c1 [Example 156, 5-[2-Methyl-3-(pyrrolidin-1-ylmethyl)phenyl]-1,3-dihydrobenzimidazol-2-one]",6.31 µM
15,"Cc1c(CN2CC(F)C2)cccc1-c1ccc2[nH]c(=O)[nH]c2c1 [Example 157, 5-[3-[(3-Fluoroazetidin-1-yl)methyl]-2-methyl-phenyl]-1,3-dihydrobenzimidazol-2-one]",6.31 µM
16,"Cc1c(CN2CC3CC(C2)O3)cccc1-c1ccc2[nH]c(=O)[nH]c2c1 [Example 158, 5-[2-Methyl-3-(6-oxa-3-azabicyclo[3;1;1]heptan-3-ylmethyl)phenyl]-1,3-dihydrobenzimidazol-2-one]",6.31 µM
17,"C=Cc1cccc(Cl)c1-c1ccc2[nH]c(=O)[nH]c2c1 [Example 161, 5-(2-Chloro-6-vinyl-phenyl)-1,3-dihydrobenzimidazol-2-one]",0.0316 µM
18,"O=c1[nH]c2ccc(-c3c(Cl)cccc3-c3ccccc3)cc2[nH]1 [Example 162, 5-(2-Chloro-6-phenyl-phenyl)-1,3-dihydrobenzimidazol-2-one]",0.02 µM
19,"O=c1[nH]c2ccc(-c3c(Cl)cccc3-c3ccc(F)cc3)cc2[nH]1 [Example 163, 5-[2-Chloro-6-(4-fluorophenyl)phenyl]-1,3-dihydrobenzimidazol-2-one]",0.02 µM
20,"N#Cc1ccc(-c2cccc(Cl)c2-c2ccc3[nH]c(=O)[nH]c3c2)cc1 [Example 164, 4-[3-Chloro-2-(2-oxo-1,3-dihydrobenzimidazol-5-yl)phenyl]benzonitrile]",0.0398 µM
21,"O=c1[nH]c2ccc(-c3c(Cl)cccc3-c3cccnc3)cc2[nH]1 [Example 165, 5-[2-Chloro-6-(3-pyridyl)phenyl]-1,3-dihydrobenzimidazol-2-one]",0.126 µM
22,"O=c1[nH]c2ccc(-c3c(Cl)cccc3-c3cncc(F)c3)cc2[nH]1 [Example 166, 5-[2-Chloro-6-(5-fluoro-3-pyridyl)phenyl]-1,3-dihydrobenzimidazol-2-one]",0.0631 µM
